Reference: patent US20230287044A1, “NOVEL ANTIBACTERIAL PEPTIDE AND USE THEREOF” (priority 2020, published 2023)
≈ marks a conversion by molar mass, not a printed value. Square brackets hold non-standard residues; d marks the D form. Ends that are not written are not given here. Peptide text beside a SMILES is read from it. * marks the point of attachment. NH(β-GlcNAc) = CC(=O)N[C@@H]1[C@@H](O)[C@H](O)[C@@H](CO)O[C@H]1N*; Decanoyl = CCCCCCCCCC(=O)*; Hexanoyl = CCCCCC(=O)*

Tests used:
[1] = test system: MRPA (P. aeruginosa) CCARM 2180; format: cell-based, Pseudomonas aeruginosa; conditions: CCARM 2180, 18 h
Experimental: (§1) The minimum growth inhibitory concentrations of the antibacterial peptides of the present invention weremeasured, and the results are shown in Table 3 below.
(§2) Specifically, the strains were grown in CAMHB until the midlog phase, and then diluted with PBS buffer to 1× 10^6 cfu/ml to prepare the bacterial solution, and the antibacterial peptide prepared in Example 1above was diluted with CAMHB to 80 µM, 40 µM, 20 µM, 10 µM, 5 µM, 2.5 µM, 1.25 µM and 0.63 µM, and then the bacterial solution was treated with the same volume.
(§3) The results are the average value of three independent experiments.

[2] = test system: MRSA (S. aureus) KCCM 40510; format: cell-based, Staphylococcus aureus; conditions: KCCM 40510, 18 h
Experimental: as §1, §2, §3

[3] = test system: MRAB (A. baumannii) ATCC BAA 1605; format: cell-based, Acinetobacter baumannii; conditions: ATCC BAA 1605, 18 h
Experimental: as §1, §2, §3

[4] = test system: VRE (E. faecalis) ATCC 51575; format: cell-based, Enterococcus faecalis; conditions: ATCC 51575, 18 h
Experimental: as §1, §2, §3

MIC MRPA (P. aeruginosa) CCARM 2180 [1] [µM]	MIC MRSA (S. aureus) KCCM 40510 [2] [µM]	MIC MRAB (A. baumannii) ATCC BAA 1605 [3] [µM]	MIC VRE (E. faecalis) ATCC 51575 [4] [µM]	Compound
5 (≈ 7.64 µg/mL)	1.25 (≈ 1.91 µg/mL)	10 (≈ 15.3 µg/mL)	1.25 (≈ 1.91 µg/mL)	CC(C)[C@@H](NC(=O)[C@@H](Cc1c[nH]c2ccccc12)NC(=O)[C@@H](CCCNC(=N)N)NC(=O)[C@@H](CCCNC(=N)N)NC(=O)[C@H](N)CCCNC(=N)N)C(=O)N[C@H](Cc1c[nH]c2ccccc12)C(=O)N[C@@H](C(=O)N[C@@H](C(=O)N[C@H](Cc1c[nH]c2ccccc12)C(=O)N[C@H](Cc1c[nH]c2ccccc12)C(N)=O)C(C)C)C(C)C [KSH81, rrrwvwvvww] (H-[dR][dR][dR][dW][dV][dW][dV][dV][dW][dW]-NH2; N-terminus assumed)
2.5 (≈ 3.82 µg/mL)	1.25 (≈ 1.91 µg/mL)	10 (≈ 15.3 µg/mL)	1.25 (≈ 1.91 µg/mL)	CC(C)[C@@H](NC(=O)[C@@H](Cc1c[nH]c2ccccc12)NC(=O)[C@@H](CCCNC(=N)N)NC(=O)[C@@H](CCCNC(=N)N)NC(=O)[C@H](N)CCCNC(=N)N)C(=O)N[C@H](Cc1c[nH]c2ccccc12)C(=O)N[C@H](Cc1c[nH]c2ccccc12)C(=O)N[C@@H](C(=O)N[C@@H](C(=O)N[C@H](Cc1c[nH]c2ccccc12)C(N)=O)C(C)C)C(C)C [KSH80, rrrwvwwvvw] (H-[dR][dR][dR][dW][dV][dW][dW][dV][dV][dW]-NH2; N-terminus assumed)
40 (≈ 58.8 µg/mL)	10 (≈ 14.7 µg/mL)	5 (≈ 7.35 µg/mL)	10 (≈ 14.7 µg/mL)	CC[C@H](C)[C@H](NC(=O)[C@H](Cc1c[nH]c2ccccc12)NC(=O)[C@@H](NC(=O)[C@H](CC(C)C)NC(=O)[C@@H](N)Cc1c[nH]c2ccccc12)C(C)C)C(=O)N[C@@H](Cc1c[nH]c2ccccc12)C(=O)N[C@@H](CCCNC(=N)N)C(=O)N[C@@H](CCCCN)C(=O)N[C@@H](CCCCN)C(=O)N[C@@H](CCCNC(=N)N)C(N)=O [LSH28]
>40	20	5	20	WLAWLYLRKKR-NH2 [LSH8]
40	10	5	10	WLLWLYARKKR-NH2 [LSH9]

The remaining lines, values behind:

Compound	MIC MRPA (P. aeruginosa) CCARM 2180 [1] [µM]	MIC MRSA (S. aureus) KCCM 40510 [2] [µM]	MIC MRAB (A. baumannii) ATCC BAA 1605 [3] [µM]	MIC VRE (E. faecalis) ATCC 51575 [4] [µM]
CC[C@@H](C)[C@@H](NC(=O)[C@@H](Cc1c[nH]c2ccccc12)NC(=O)[C@@H](C)NC(=O)[C@@H](C)NC(=O)[C@H](N)Cc1c[nH]c2ccccc12)C(=O)NCC(=O)N[C@H](CC(C)C)C(=O)N[C@H](CCCNC(=N)N)C(=O)N[C@H](CCCCN)C(=O)N[C@H](CCCNC(=N)N)C(=O)N[C@H](CCCCN)C(N)=O [KSH77, waawiglrkrk] (H-[dW][dA][dA][dW][dI]G[dL][dR][dK][dR][dK]-NH2; N-terminus assumed)	>10	>10	2.5 (≈ 3.46 µg/mL)	>10
CC(C)[C@@H](NC(=O)[C@@H](Cc1c[nH]c2ccccc12)NC(=O)[C@@H](CCCNC(=N)N)NC(=O)[C@H](N)CCCNC(=N)N)C(=O)N[C@H](Cc1c[nH]c2ccccc12)C(=O)N[C@@H](C(=O)N[C@@H](C(=O)N[C@H](Cc1c[nH]c2ccccc12)C(=O)N[C@H](CCCCN)C(N)=O)C(C)C)C(C)C [KSH56, rrwvwvvwk] (H-[dR][dR][dW][dV][dW][dV][dV][dW][dK]-NH2; N-terminus assumed)	5 (≈ 6.57 µg/mL)	1.25 (≈ 1.64 µg/mL)	1.25 (≈ 1.64 µg/mL)	1.25 (≈ 1.64 µg/mL)
CC[C@@H](C)[C@@H](NC(=O)[C@@H](Cc1c[nH]c2ccccc12)NC(=O)[C@@H](CCCNC(=N)N)NC(=O)[C@@H](CCCNC(=N)N)NC(=O)[C@H](N)CCCNC(=N)N)C(=O)N[C@H](Cc1c[nH]c2ccccc12)C(=O)N[C@H](C)C(=O)N[C@H](C)C(=O)N[C@H](Cc1c[nH]c2ccccc12)C(=O)N[C@H](CCCCN)C(N)=O [KSH74, rrrwiwaawk] (H-[dR][dR][dR][dW][dI][dW][dA][dA][dW][dK]-NH2; N-terminus assumed)	>10	>10	2.5 (≈ 3.57 µg/mL)	>10
CC(C)[C@@H](NC(=O)[C@H](N)Cc1c[nH]c2ccccc12)C(=O)N[C@H](C)C(=O)N[C@H](Cc1c[nH]c2ccccc12)C(=O)N[C@H](C)C(=O)N[C@@H](C(=O)N[C@H](Cc1c[nH]c2ccccc12)C(=O)N[C@H](CCCNC(=N)N)C(=O)N[C@H](CCCNC(=N)N)C(=O)N[C@H](CCCNC(=N)N)C(N)=O)C(C)C [KSH71, wvawavwrrr] (H-[dW][dV][dA][dW][dA][dV][dW][dR][dR][dR]-NH2; N-terminus assumed)	>10	5 (≈ 6.92 µg/mL)	1.25 (≈ 1.73 µg/mL)	2.5 (≈ 3.46 µg/mL)
CCCCCCCCCC(=O)NCCCC[C@@H](NC(=O)[C@@H](CCCCN)NC(=O)[C@@H](CCCNC(=N)N)NC(=O)[C@@H](CC(C)C)NC(=O)[C@@H](C)NC(=O)[C@H](NC(=O)[C@@H](Cc1c[nH]c2ccccc12)NC(=O)[C@@H](CC(C)C)NC(=O)[C@@H](CC(C)C)NC(=O)[C@H](N)Cc1c[nH]c2ccccc12)[C@H](C)CC)C(=O)N[C@H](CCCNC(=N)N)C(N)=O [KSH4, wllwialrkkr] (H-[dW][dL][dL][dW][dI][dA][dL][dR][dK][dK](Decanoyl)[dR]-NH2; N-terminus assumed)	>40	5 (≈ 8.18 µg/mL)	>40	5 (≈ 8.18 µg/mL)
CC[C@@H](C)[C@@H](NC(=O)[C@@H](Cc1c[nH]c2ccccc12)NC(=O)[C@@H](CCCNC(=N)N)NC(=O)[C@@H](CCCNC(=N)N)NC(=O)[C@H](N)CCCNC(=N)N)C(=O)N[C@H](Cc1c[nH]c2ccccc12)C(=O)N[C@H](Cc1c[nH]c2ccccc12)C(=O)N[C@H](CC(C)C)C(=O)N[C@H](Cc1c[nH]c2ccccc12)C(=O)N[C@H](CCCCN)C(N)=O [KSH50, rrrwiwwlwk] (H-[dR][dR][dR][dW][dI][dW][dW][dL][dW][dK]-NH2; N-terminus assumed)	2.5 (≈ 3.96 µg/mL)	1.25 (≈ 1.98 µg/mL)	0.63 (≈ 0.999 µg/mL)	1.25 (≈ 1.98 µg/mL)
CC(C)[C@@H](NC(=O)[C@@H](Cc1c[nH]c2ccccc12)NC(=O)[C@@H](CCCNC(=N)N)NC(=O)[C@@H](CCCNC(=N)N)NC(=O)[C@H](N)CCCNC(=N)N)C(=O)N[C@H](Cc1c[nH]c2ccccc12)C(=O)N[C@@H](C(=O)N[C@@H](C(=O)N[C@H](Cc1c[nH]c2ccccc12)C(=O)N[C@H](CCCCN)C(N)=O)C(C)C)C(C)C [KSH57, rrrwvwvvwk] (H-[dR][dR][dR][dW][dV][dW][dV][dV][dW][dK]-NH2; N-terminus assumed)	20 (≈ 29.4 µg/mL)	20 (≈ 29.4 µg/mL)	5 (≈ 7.35 µg/mL)	20 (≈ 29.4 µg/mL)
CC(C)[C@@H](NC(=O)[C@@H](Cc1c[nH]c2ccccc12)NC(=O)[C@@H](Cc1c[nH]c2ccccc12)NC(=O)[C@H](NC(=O)[C@@H](Cc1c[nH]c2ccccc12)NC(=O)[C@@H](CCCNC(=N)N)NC(=O)[C@@H](CCCNC(=N)N)NC(=O)[C@H](N)CCCNC(=N)N)C(C)C)C(=O)N[C@H](Cc1c[nH]c2ccccc12)C(=O)N[C@H](Cc1c[nH]c2ccccc12)C(N)=O [KSH79, rrrwvwwvww] (H-[dR][dR][dR][dW][dV][dW][dW][dV][dW][dW]-NH2; N-terminus assumed)	2.5 (≈ 4.04 µg/mL)	1.25 (≈ 2.02 µg/mL)	10 (≈ 16.1 µg/mL)	1.25 (≈ 2.02 µg/mL)
CCCCCC(=O)NCCCC[C@@H](N)C(=O)N[C@H](Cc1c[nH]c2ccccc12)C(=O)N[C@H](CC(C)C)C(=O)N[C@H](CC(C)C)C(=O)N[C@H](Cc1c[nH]c2ccccc12)C(=O)N[C@@H](C(=O)NCC(=O)N[C@H](CC(C)C)C(=O)N[C@H](CCCNC(=N)N)C(=O)N[C@H](CCCCN)C(=O)N[C@H](CCCCN)C(=O)N[C@H](CCCNC(=N)N)C(N)=O)[C@H](C)CC [KSH9, kwllwiglrkkr] (H-[dK](Hexanoyl)[dW][dL][dL][dW][dI]G[dL][dR][dK][dK][dR]-NH2; N-terminus assumed)	10 (≈ 16.9 µg/mL)	1.25 (≈ 2.12 µg/mL)	5 (≈ 8.47 µg/mL)	1.25 (≈ 2.12 µg/mL)
CC(=O)N[C@@H]1[C@@H](O)[C@H](O)[C@@H](CO)O[C@H]1NC(=O)C[C@H](NC(=O)[C@@H](CCCNC(=N)N)NC(=O)[C@@H](CCCNC(=N)N)NC(=O)[C@@H](CCCNC(=N)N)NC(=O)[C@@H](Cc1c[nH]c2ccccc12)NC(=O)[C@H](NC(=O)[C@H](NC(=O)[C@@H](Cc1c[nH]cn1)NC(=O)[C@H](NC(=O)[C@H](NC(=O)[C@H](N)Cc1c[nH]c2ccccc12)C(C)C)C(C)C)C(C)C)C(C)C)C(N)=O [KSH49, wvvhvvwrrrN] (H-[dW][dV][dV][dH][dV][dV][dW][dR][dR][dR]D(NH(β-GlcNAc))-NH2; N-terminus assumed)	10 (≈ 17.1 µg/mL)	1.25 (≈ 2.14 µg/mL)	2.5 (≈ 4.27 µg/mL)	1.25 (≈ 2.14 µg/mL)
